{
  "source": "ChEMBL document CHEMBL5365414",
  "about": "“Synthesis and activity of β-carboline antimalarials targeting the Plasmodium falciparum heat shock 90 protein” (Bioorg Med Chem Lett, 2023)",
  "key": {"Plasmodium berghei [1]": {"system": "Plasmodium berghei", "experiment": "Antimalarial activity against luciferase expressing liver stage Plasmodium berghei ANKA infected in human Huh-7 cells assessed as reduction in parasite load at 10 uM measured after 44 hrs post infection by Bright-glo reagent based luciferase reporter assay relative to control", "format": "functional", "design": "scale not given: the % may be the effect or the level left"}, "Huh-7 [2]": {"system": "Huh-7", "experiment": "Cytotoxicity against human Huh-7 cells infected with luciferase expressing liver stage Plasmodium berghei ANKA assessed as reduction in cell viability at 10 uM measured after 44 hrs post infection by Cell-TiterFluor viability assay relative to control", "format": "toxicity, cell-based", "conditions": "huh-7, 44 h"}, "Plasmodium berghei [3]": {"system": "Plasmodium berghei", "experiment": "Antimalarial activity against luciferase expressing liver stage Plasmodium berghei ANKA infected in human Huh-7 cells assessed as reduction in parasite load measured after 44 hrs post infection by Bright-glo reagent based luciferase reporter assay", "format": "functional, organism-based", "conditions": "Huh-7, 44 h"}, "Huh-7 [4]": {"system": "Huh-7", "experiment": "Cytotoxicity against human Huh-7 cells infected with luciferase expressing liver stage Plasmodium berghei ANKA assessed as reduction in cell viability at high doses measured after 44 hrs post infection by Cell-TiterFluor viability assay", "format": "toxicity, cell-based", "conditions": "huh-7, 44 h"}, "Huh-7 [5]": {"system": "Huh-7", "experiment": "Cytotoxicity against human Huh-7 cells infected with luciferase expressing liver stage Plasmodium berghei ANKA assessed as reduction in cell viability upto 100 uM measured after 44 hrs post infection by Cell-TiterFluor viability assay", "format": "toxicity, cell-based", "conditions": "huh-7, 44 h"}, "HSP90": {"molecular_target": "T1, HSP90 (Plasmodium falciparum 3D7, UniProt Q8IL32)", "T1 sequence (Q8IL32 whole entry)": "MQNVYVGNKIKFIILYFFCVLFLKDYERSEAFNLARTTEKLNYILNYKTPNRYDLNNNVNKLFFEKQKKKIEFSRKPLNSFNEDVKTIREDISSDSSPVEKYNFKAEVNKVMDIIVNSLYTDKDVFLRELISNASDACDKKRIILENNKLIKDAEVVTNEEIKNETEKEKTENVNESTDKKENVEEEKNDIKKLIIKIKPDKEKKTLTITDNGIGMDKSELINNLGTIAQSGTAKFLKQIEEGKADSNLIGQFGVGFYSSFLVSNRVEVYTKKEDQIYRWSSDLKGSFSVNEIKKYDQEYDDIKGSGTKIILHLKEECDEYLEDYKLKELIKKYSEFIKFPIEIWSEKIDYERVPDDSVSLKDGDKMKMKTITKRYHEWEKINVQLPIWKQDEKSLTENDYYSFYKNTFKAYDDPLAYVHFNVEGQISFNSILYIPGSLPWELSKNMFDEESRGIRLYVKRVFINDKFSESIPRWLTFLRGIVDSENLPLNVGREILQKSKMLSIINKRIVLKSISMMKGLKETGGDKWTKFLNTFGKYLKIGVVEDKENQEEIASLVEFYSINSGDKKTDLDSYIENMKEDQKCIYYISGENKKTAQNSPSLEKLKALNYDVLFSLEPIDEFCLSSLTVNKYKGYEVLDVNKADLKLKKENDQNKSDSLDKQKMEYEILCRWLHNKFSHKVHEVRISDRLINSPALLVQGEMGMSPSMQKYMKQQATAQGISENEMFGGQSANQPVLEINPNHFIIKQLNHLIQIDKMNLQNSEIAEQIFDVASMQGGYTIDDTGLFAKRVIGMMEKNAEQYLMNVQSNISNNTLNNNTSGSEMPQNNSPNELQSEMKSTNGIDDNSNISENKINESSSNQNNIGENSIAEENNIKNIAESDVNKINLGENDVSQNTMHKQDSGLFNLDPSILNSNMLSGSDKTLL", "experiment": "Inhibition of recombinant his-tagged Plasmodium falciparum Hsp90 GHKL domain expressed in Escherichia coli BL21 (DE3) cells by bis-ANS binding assay"}},
  "data": [
    {"smiles": "Clc1ccc2[nH]c3c(-c4ccccc4)nccc3c2c1", "values": [
      {"measurement": "Activity", "setting": "Plasmodium berghei [1]", "result": ">50", "unit": "%"}
    ]},
    {"smiles": "c1ccc2c(c1)[nH]c1cnccc12", "note": "[NORHARMANE]", "values": [
      {"measurement": "Activity", "setting": "Plasmodium berghei [1]", "result": ">50", "unit": "%"}
    ]},
    {"smiles": "c1ccc2c(c1)[nH]c1c(C3CC3)nccc12", "values": [
      {"measurement": "Activity", "setting": "Plasmodium berghei [1]", "result": ">50", "unit": "%"}
    ]},
    {"smiles": "c1ccc2c(c1)[nH]c1c(-c3ccsc3)nccc12", "values": [
      {"measurement": "Activity", "setting": "Huh-7 [2]", "result": 78, "unit": "%"},
      {"measurement": "Activity", "setting": "Plasmodium berghei [1]", "result": ">50", "unit": "%"}
    ]},
    {"smiles": "COc1cccc(-c2nccc3c2[nH]c2ccc(Cl)cc23)c1", "values": [
      {"measurement": "Activity", "setting": "Huh-7 [2]", "result": 78, "unit": "%"},
      {"measurement": "Activity", "setting": "Plasmodium berghei [1]", "result": ">50", "unit": "%"}
    ]},
    {"smiles": "COc1ccc2c(c1)[nH]c1c(C3CC3)nccc12", "values": [
      {"measurement": "Activity", "setting": "Plasmodium berghei [1]", "result": ">50", "unit": "%"}
    ]},
    {"smiles": "Clc1cccc(-c2nccc3c2[nH]c2ccc(Cl)cc23)c1", "values": [
      {"measurement": "Activity", "setting": "Plasmodium berghei [1]", "result": ">50", "unit": "%"}
    ]},
    {"smiles": "FC(F)(F)c1cccc(-c2nccc3c2[nH]c2ccc(Cl)cc23)c1", "values": [
      {"measurement": "EC50", "setting": "Plasmodium berghei [3]", "result": 5.2, "unit": "µM"},
      {"measurement": "Activity", "setting": "Huh-7 [4]", "result": "Toxic"},
      {"measurement": "Activity", "setting": "Plasmodium berghei [1]", "result": 15, "unit": "%"}
    ]},
    {"smiles": "N#Cc1ccc(-c2nccc3c2[nH]c2ccccc23)cc1", "values": [
      {"measurement": "Activity", "setting": "Plasmodium berghei [1]", "result": ">50", "unit": "%"}
    ]},
    {"smiles": "O=C1C(O)=C([C@H]2CC[C@H](c3ccc(Cl)cc3)CC2)C(=O)c2ccccc21", "note": "[ATOVAQUONE]", "values": [
      {"measurement": "EC50", "setting": "Plasmodium berghei [3]", "result": 0.01, "unit": "µM"}
    ]},
    {"smiles": "Cc1cccc(-c2nccc3c2[nH]c2ccc(Cl)cc23)c1", "values": [
      {"measurement": "Activity", "setting": "Plasmodium berghei [1]", "result": 41, "unit": "%"}
    ]},
    {"smiles": "c1cncc(-c2nccc3c2[nH]c2ccccc23)c1", "values": [
      {"measurement": "Activity", "setting": "Plasmodium berghei [1]", "result": ">50", "unit": "%"}
    ]},
    {"smiles": "COc1ccc(-c2nccc3c2[nH]c2ccccc23)cc1", "values": [
      {"measurement": "Activity", "setting": "Plasmodium berghei [1]", "result": ">50", "unit": "%"}
    ]},
    {"smiles": "FC(F)(F)c1ccc(-c2nccc3c2[nH]c2ccccc23)cc1", "values": [
      {"measurement": "EC50", "setting": "Plasmodium berghei [3]", "result": 5.2, "unit": "µM"},
      {"measurement": "Activity", "setting": "Huh-7 [5]", "result": "Non-Toxic"},
      {"measurement": "Activity", "setting": "Plasmodium berghei [1]", "result": 5.8, "unit": "%"}
    ]},
    {"smiles": "COc1ccc2[nH]c3c(-c4ccccc4)nccc3c2c1", "values": [
      {"measurement": "Activity", "setting": "Plasmodium berghei [1]", "result": ">50", "unit": "%"}
    ]},
    {"smiles": "CC1NCCc2c1[nH]c1ccc(Cl)cc21", "note": "(stereo not drawn)", "values": [
      {"measurement": "IC50", "setting": "HSP90", "result": 12.2, "unit": "µM"}
    ]},
    {"smiles": "Clc1cccc(-c2nccc3c2[nH]c2ccccc23)c1", "values": [
      {"measurement": "Activity", "setting": "Plasmodium berghei [1]", "result": ">50", "unit": "%"}
    ]}
  ]
}
